Measurements from paper PMC8351955, “Targeting Mycobacterium tuberculosis response to environmental cues for the development of effective antitubercular drugs” (PLoS Biology, 2021).
Where “and” joins values, the source holds several entries; their conditions need not be identical. Identical values can stand only once. Like-named read-outs stand apart in the source and are kept apart here.

Assays:
Mtb-infected J774 cells = conditions: for Accumulation in Mtb-infected J774 cells: 10 μM, 24 hours, 5 days post-infection; for nmol/106 cells: Fig. 3F
J774 cells = assay: Intracellular drug accumulation assay in J774 cells (LC-MS); conditions: for Intracellular accumulation in J774 cells: 24 hours; for nmol/106 cells: Fig. 3F
Mtb [1] = assay: Mtb growth assay in cholesterol medium (OD600); conditions: for Inhibition of Mtb growth in cholesterol media: 10 μM, OD600 over 12 days; for OD600: Fig. 2G
Source text: (§1) Bacterial growth was tracked by measuring OD600 every 3 days for 12 days. […] Bacterial growth was tracked by measurement of OD600 every 3 days over 12 days.

Mtb CDC1551 = assay: Intrabacterial drug accumulation assay (LC-MS); conditions: 24-hour exposure, 7H9 pH 7 ± 250 mM NaCl
[2] = tested on: WT Mtb (Erdman) in primary murine BMDMs; assay: Primary murine bone marrow-derived macrophage infection, CFU; type: cell-based, Mycobacterium tuberculosis; conditions: for Effect on bacterial load / Mtb growth in primary murine BMDMs: 10 μM, 8-day infection time course, vs DMSO; for CFU/ml: Fig. 2E, 10 µM
Procedure: C57BL/6J wild-type mice (Jackson Laboratories) were used for extraction of BMDMs. Cells were harvested and expanded in DMEM containing 10% FBS, 15% L-cell conditioned media, 2 mM L-glutamine, 1 mM sodium pyruvate, and penicillin/streptomycin as needed in a 37°C incubator in a 5% CO2 atmosphere. […] Macrophages were lysed with water containing 0.01% sodium dodecyl sulfate and a dilution series of the samples plated on 7H10 agar for CFU determination.

Mtb [3] = assay: Mtb growth assay in standard 7H9 medium (OD600); conditions: Fig. 2F
Source text: as §1

[4] = tested on: CDC1551(rv2390c′::GFP) reporter Mtb strain; conditions: for Normalized % induction: Fig. 2C, DMSO = 100; for Ability to increase rv2390c′::GFP reporter signal in high [Cl−]: pH 7
[5] = tested on: Mtb growth in J774 macrophage-like cells; assay: J774 infection in 96-well plates, mKO fluorescence 6 days post-infection; type: cell-based, Mycobacterium tuberculosis; conditions: for Inhibition of Mtb growth in J774 cells: 10 μM, 6 days post-infection; for % Growth: Fig. 2D, DMSO = 100
Procedure: For J774 infection in 96-well plates, 1.8 × 10^5 J774 cells were seeded per well in 180 μl of J774 infection media 1 day prior to infection. On the day of the assay, log-phase Mtb constitutively expressing mKO were pelleted and resuspended in 1 ml basal uptake buffer, passed 6× through a tuberculin syringe with a 25 G × 5/8″ needle, then resuspended in J774 infection media to a final OD600 = 0.2. Media was removed from 96-well plate containing the J774 cells, with 140 μl of fresh J774 infection media added back to each well. A volume of 40 μl of the Mtb suspension at OD600 = 0.2 was added to each well, followed by addition of appropriate concentration of compound or DMSO in a 20-μl final volume in J774 infection media (compound final concentration 10 μM, rifampicin final concentration 5 μM, DMSO final concentration 0.1%/well). Bacterial mKO fluorescence was read immediately after infection using a Biotek Synergy Neo2 microplate reader (bottom read monochromator, excitation 543/10 nm, emission 565/10 nm), and again 6 days post-infection. Plates were kept in humidified ziplock bags in a 37°C, 5% CO2 incubator. mKO fluorescence in DMSO-treated control samples were defined as 100% growth, and fluorescence observed in treatment conditions calculated as a percentage from that set value.

[6] = tested on: Mtb growth in cholesterol media; set-up: method as in PubChem AID 1259343; conditions: ref PubChem AID 1259343; cited from earlier work
[7] = tested on: CDC1551(rv2390c′::GFP) reporter Mtb strain, response to high [Cl−]; assay: microbe, parasite or virus in culture; type: cell-based, Mycobacterium tuberculosis; conditions: primary screen, 10 µM
Mtb [8] = tested on: Mtb; set-up: method as in PMID 26574016, PMID 27227164; conditions: subset of mice failing to respond; cited from earlier work
Mtb [9] = tested on: Mtb; set-up: method as in PMID 26574016, PMID 27227164; conditions: mice do not form caseous necrotic lesions; cited from earlier work

Structure (SMILES)	Intracellular accumulation in J774 cells (J774 cells)	Inhibition of Mtb growth in cholesterol media (Mtb [1])	OD600 (Mtb [1]; day 3, average)	OD600 (Mtb [1]; day 3, individual replicates)	OD600 (Mtb [1]; day 6, average)	OD600 (Mtb [1]; day 6, individual replicates)	OD600 (Mtb [1]; day 9, average)	OD600 (Mtb [1]; day 9, individual replicates)	OD600 (Mtb [1]; day 12, average)	OD600 (Mtb [1]; day 12, individual replicates)	OD600 (Mtb [3]; day 3, average)	OD600 (Mtb [3]; day 3, individual replicates)	OD600 (Mtb [3]; day 6, average)	OD600 (Mtb [3]; day 6, individual replicates)	OD600 (Mtb [3]; day 9, average)	OD600 (Mtb [3]; day 9, individual replicates)	OD600 (Mtb [3]; day 12, average)	OD600 (Mtb [3]; day 12, individual replicates)	Normalized % induction ([4]; average of 3 replicates) [%]	Normalized % induction ([4]; individual replicates)	also measured
COc1ncc(CN2CCN(c3nc4ccccc4o3)CC2)cn1 [JSF-4271, 2-(4-((2-methoxypyrimidin-5-yl)methyl)piperazin-1-yl)benzo[d]oxazole]	minimal accumulation	no longer inhibited Mtb growth	0.1	0.1	0.28	0.3 (2×) and 0.24	0.4467	0.46 (2×) and 0.42	0.52	0.52 and 0.5 and 0.54	0.2	0.2 and 0.22 and 0.18	0.4067	0.42 (2×) and 0.38	0.5267	0.54 (2×) and 0.5	0.6733	0.68 (2×) and 0.66	98.3426	93.208% and 98.8641% and 102.956%	Accumulation in Mtb-infected J774 cells (Mtb-infected J774 cells): minimal accumulation; Intrabacterial accumulation in Mtb (Mtb CDC1551): decreased accumulation; Effect on bacterial load / Mtb growth in primary murine BMDMs [2]: loss of the ability to inhibit Mtb growth; CFU/ml ([2]; day 2, average): 489333 CFU/ml; CFU/ml ([2]; day 2, individual replicates): 446000 CFU/ml and 482000 CFU/ml and 540000 CFU/ml; CFU/ml ([2]; day 4, average): 960000 CFU/ml; CFU/ml ([2]; day 4, individual replicates): 1040000 CFU/ml and 1100000 CFU/ml and 740000 CFU/ml; CFU/ml ([2]; day 6, average): 2286667 CFU/ml; CFU/ml ([2]; day 6, individual replicates): 1960000 CFU/ml and 2060000 CFU/ml and 2840000 CFU/ml; CFU/ml ([2]; day 8, average): 6800000 CFU/ml; CFU/ml ([2]; day 8, individual replicates): 6000000 CFU/ml and 5400000 CFU/ml and 9000000 CFU/ml; Ability to increase rv2390c′::GFP reporter signal in high [Cl−] [4]: lost the ability; Inhibition of Mtb growth in J774 cells [5]: loss of the ability to inhibit Mtb growth; % Growth ([5]; average of 4 replicates): 107.949%; % Growth ([5]; individual replicates): 101.522% and 116.46% and 111.935% and 101.878%
c1ccc2oc(N3CCN(Cc4cncnc4)CC3)nc2c1 [JSF-4297, 2-(4-(pyrimidin-5-ylmethyl)piperazin-1-yl)benzo[d]oxazole]	no detectable accumulation	no longer inhibited Mtb growth	0.09333	0.1 (2×) and 0.08	0.3133	0.32 (2×) and 0.3	0.4533	0.46 (2×) and 0.44	0.5	0.48 and 0.5 and 0.52	0.1933	0.18 (2×) and 0.22	0.4	0.4 and 0.42 and 0.38	0.5467	0.56 (2×) and 0.52	0.7	0.7 and 0.72 and 0.68	100.379	88.9158% and 107.146% and 105.074%	nmol/106 cells (Mtb-infected J774 cells; Experiment 1 - Mtb-infected J774, average): 0.006771 nmol/106 cells; nmol/106 cells (Mtb-infected J774 cells; Experiment 1 - Mtb-infected J774, individual replicates): 0.007341 nmol/106 cells and 0.006486 nmol/106 cells (2×); nmol/106 cells (Mtb-infected J774 cells; Experiment 2 - Mtb-infected J774, average): 0.007288 nmol/106 cells; nmol/106 cells (Mtb-infected J774 cells; Experiment 3 - Mtb-infected J774, average): 0.039 nmol/106 cells; nmol/106 cells (Mtb-infected J774 cells; Experiment 3 - Mtb-infected J774, individual replicates): 0.03001 nmol/106 cells and 0.048 nmol/106 cells; nmol/106 cells (J774 cells; Experiment 1 - J774, average): 0 nmol/106 cells; nmol/106 cells (J774 cells; Experiment 1 - J774, individual replicates): 0 nmol/106 cells; nmol/106 cells (J774 cells; Experiment 2 - J774, average): 0 nmol/106 cells; nmol/106 cells (J774 cells; Experiment 2 - J774, individual replicates): 0 nmol/106 cells; nmol/106 cells (J774 cells; Experiment 3 - J774, average): 0 nmol/106 cells; nmol/106 cells (J774 cells; Experiment 3 - J774, individual replicates): 0 nmol/106 cells; Effect on bacterial load / Mtb growth in primary murine BMDMs [2]: loss of the ability to inhibit Mtb growth; Ability to increase rv2390c′::GFP reporter signal in high [Cl−] [4]: lost the ability; Inhibition of Mtb growth in J774 cells [5]: loss of the ability to inhibit Mtb growth; % Growth ([5]; average of 4 replicates): 108.514%; % Growth ([5]; individual replicates): 102.242% and 116.384% and 110.602% and 104.828%
CCSc1ccc(CN2CCN(c3nc4ccccc4o3)CC2)cc1 [JSF-4300, 2-(4-(4-(ethylthio)benzyl)piperazin-1-yl)benzo[d]oxazole]	robust accumulation	continuing to demonstrate the phenotypes seen with the parental C6 compound	0.06	0.06	0.09333	0.1 (2×) and 0.08	0.1333	0.14 (2×) and 0.12	0.16	0.16 and 0.14 and 0.18	0.1733	0.18 (2×) and 0.16	0.3867	0.38 (2×) and 0.4	0.4933	0.48 (2×) and 0.52	0.6467	0.64 (2×) and 0.66	125.329	120.3% and 121.44% and 134.248%	Accumulation in Mtb-infected J774 cells (Mtb-infected J774 cells): robust accumulation; Intrabacterial accumulation in Mtb (Mtb CDC1551): robust accumulation; CFU/ml ([2]; day 2, average): 472667 CFU/ml; CFU/ml ([2]; day 2, individual replicates): 482000 CFU/ml and 478000 CFU/ml and 458000 CFU/ml; CFU/ml ([2]; day 4, average): 660000 CFU/ml; CFU/ml ([2]; day 4, individual replicates): 620000 CFU/ml and 660000 CFU/ml and 700000 CFU/ml; CFU/ml ([2]; day 6, average): 806667 CFU/ml; CFU/ml ([2]; day 6, individual replicates): 740000 CFU/ml (2×) and 940000 CFU/ml; CFU/ml ([2]; day 8, average): 966667 CFU/ml; CFU/ml ([2]; day 8, individual replicates): 1080000 CFU/ml and 800000 CFU/ml and 1020000 CFU/ml; Ability to increase rv2390c′::GFP reporter signal in high [Cl−] [4]: continuing to demonstrate the phenotypes seen with the parental C6 compound; Inhibition of Mtb growth in J774 cells [5]: continuing to demonstrate the phenotypes seen with the parental C6 compound; % Growth ([5]; average of 4 replicates): 60.6248%; % Growth ([5]; individual replicates): 59.61% and 62.908% and 58.5309% and 61.4502%
c1ccc2oc(N3CCN(Cc4ccc(C5CCCO5)s4)CC3)nc2c1 (stereo not drawn) [PubChem SID: 340463409, reference compound]	–	–	–	–	–	–	–	–	–	–	–	–	–	–	–	–	–	–	–	–	Call in screen for inhibition of Mtb growth in cholesterol media [6]: having antitubercular activity in cholesterol media; Dysregulation of Mtb Cl− response in original rv2390c′::GFP screen [7]: did not demonstrate dysregulation
COc1nc2ccc(Br)cc2cc1[C@@H](c1ccccc1)[C@@](O)(CCN(C)C)c1cccc2ccccc12 [bedaquiline]	–	–	–	–	–	–	–	–	–	–	–	–	–	–	–	–	–	–	–	–	Response in C3HeB/FeJ mice (Mtb [8]): heterogeneous response; Efficacy across animals in BALB/c mice (Mtb [9]): uniform efficacy across animals
NC(=O)c1cnccn1 [pyrazinamide]	–	–	–	–	–	–	–	–	–	–	–	–	–	–	–	–	–	–	–	–	Response in C3HeB/FeJ mice (Mtb [8]): heterogeneous response; Efficacy across animals in BALB/c mice (Mtb [9]): uniform efficacy across animals
